Earlier results, collected in US20190364946A1, “POWDERS AND TABLETS COMPRISING OMEGA-3 FATTY ACID DERIVATIVES AND METHODS FOR THEIR PRODUCTION” (OMEGATRI AS, priority 2016, published 2019).

Conditions: for Surfactants HLB: HLB of added surfactant or surfactant mixture; for HLB value: from commercial and scientific sources

Substance | Surfactants HLB | HLB value
Span 80 | 4.3 | –
Span 85 | 1.8 | –
sorbitan monostearate | – | 4.7
sorbitan stearate | – | 4.7
